Results reported in patent publication US10501481B2, “Heterocyclic compounds and their use in preventing or treating bacterial infections” (priority 2015, dated 2019).

Columns and labels:
TEM-1 = molecular target: T1, TEM-1 (Escherichia coli, UniProt P62593); assay: β-lactamase inhibitory activity, nitrocefin hydrolysis; format: biochemical; settings: class (A); 30 min pre-incubation; nitrocefin 200 μM
T1 construct: made in house; host or cells: E. coli

SHV-1 = molecular target: T2, SHV-1 (Klebsiella pneumoniae, UniProt P0AD64); assay: as above; format: biochemical
T2 construct: made in house; host or cells: E. coli
T2 sequence (P0AD64 22-286): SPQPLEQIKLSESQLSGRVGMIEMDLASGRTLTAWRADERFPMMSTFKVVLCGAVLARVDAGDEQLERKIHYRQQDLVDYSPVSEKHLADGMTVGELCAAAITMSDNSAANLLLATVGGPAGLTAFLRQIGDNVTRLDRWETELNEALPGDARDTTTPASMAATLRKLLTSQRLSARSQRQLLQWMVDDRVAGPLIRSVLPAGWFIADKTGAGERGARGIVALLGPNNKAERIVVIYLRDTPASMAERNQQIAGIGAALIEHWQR

CTX-M-15 = molecular target: T3, CTX-M-15 (Escherichia coli, UniProt Q9EXV5); assay: as above; format: biochemical
T3 construct: made in house; host or cells: E. coli
T3 sequence (Q9EXV5 entry or part of it): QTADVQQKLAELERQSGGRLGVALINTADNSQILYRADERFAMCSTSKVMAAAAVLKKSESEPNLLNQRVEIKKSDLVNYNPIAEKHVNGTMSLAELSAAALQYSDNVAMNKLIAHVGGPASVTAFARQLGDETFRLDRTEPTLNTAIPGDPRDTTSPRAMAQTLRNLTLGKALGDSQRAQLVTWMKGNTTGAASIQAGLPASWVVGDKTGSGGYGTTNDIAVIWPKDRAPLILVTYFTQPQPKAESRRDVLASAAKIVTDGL

KPC-2 = molecular target: T4, KPC-2 (Klebsiella pneumoniae, UniProt Q9F663); assay: as above; format: biochemical
T4 construct: made in house; host or cells: E. coli
T4 sequence (Q9F663 25-293 limits assumed): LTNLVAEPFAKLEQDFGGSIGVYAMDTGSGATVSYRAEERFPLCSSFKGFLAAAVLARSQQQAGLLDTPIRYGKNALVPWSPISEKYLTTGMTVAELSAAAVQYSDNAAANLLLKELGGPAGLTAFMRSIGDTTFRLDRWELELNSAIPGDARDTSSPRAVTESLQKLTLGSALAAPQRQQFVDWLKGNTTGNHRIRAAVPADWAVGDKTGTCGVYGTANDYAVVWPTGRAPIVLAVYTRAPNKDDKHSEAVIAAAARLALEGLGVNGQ

AmpC P. aeruginosa = AmpC P. aeruginosa (Pseudomonas aeruginosa, UniProt P24735); assay: biochemical
AmpC P. aeruginosa, sequence (P24735 27-397): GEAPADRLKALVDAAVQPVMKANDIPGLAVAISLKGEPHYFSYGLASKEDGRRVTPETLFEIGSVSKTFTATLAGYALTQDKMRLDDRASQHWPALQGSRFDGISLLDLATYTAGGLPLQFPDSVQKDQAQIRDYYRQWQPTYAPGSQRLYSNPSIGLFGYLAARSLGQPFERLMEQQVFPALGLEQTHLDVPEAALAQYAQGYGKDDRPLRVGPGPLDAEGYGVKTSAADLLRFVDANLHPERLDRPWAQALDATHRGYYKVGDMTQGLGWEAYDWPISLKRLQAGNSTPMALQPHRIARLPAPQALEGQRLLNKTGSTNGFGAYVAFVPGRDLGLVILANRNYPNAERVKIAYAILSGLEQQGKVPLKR
Protocol: Enzyme activity was monitored by spectrophotometric measurement of nitrocefin (NCF-TOKU-E, N005) hydrolysis at 485 nm, at room temperature and in assay buffer A: 100 mM Phosphate pH7, 2% glycerol and 0.1 mg/mL Bovine serum albumin (Sigma, B4287). Enzymes were cloned in E. coli expression vector, expressed and purified in house using classical procedures. To a transparent polystyrene plate (Corning, 3628) were added in each well 5 μL DMSO or inhibitor dilutions in DMSO and 80 μL enzyme in buffer A. Plates were immediately read at 485 nm in a microplate spectrophotometer (BioTek, PowerWave HT) to enable background subtraction. After 30 min of pre-incubation at room temperature, 15 μL of NCF (200 μM final) were finally added in each well. Final enzyme concentrations were 0.1 nM (TEM-1), 0.075 nM (SHV-1), 0.4 nM (CTX-M-15), 1 nM (KPC-2), 0.2 nM (P99 AmpC), 0.2 nM (CMY-37), 0.4 nM (AmpC P. aeruginosa), 0.2 nM (OXA-1), 1.2 nM (OXA-11), 0.4 nM (OXA-15) and 0.3 nM (OXA-48). After 20 min incubation at room temperature, plates were once again read at 485 nm. Enzyme activity was obtained by subtracting the final signal by the background, and was converted to enzyme inhibition using non inhibited wells. IC50 curves were fitted to a classical Langmuir equilibrium model with Hill slope using XLFIT (IDBS).

OXA-1 = molecular target: T5, OXA-1 (Escherichia coli, UniProt P13661); assay: β-lactamase inhibitory activity, nitrocefin hydrolysis; format: biochemical
T5 construct: made in house; host or cells: E. coli
T5 sequence (P13661 26-276): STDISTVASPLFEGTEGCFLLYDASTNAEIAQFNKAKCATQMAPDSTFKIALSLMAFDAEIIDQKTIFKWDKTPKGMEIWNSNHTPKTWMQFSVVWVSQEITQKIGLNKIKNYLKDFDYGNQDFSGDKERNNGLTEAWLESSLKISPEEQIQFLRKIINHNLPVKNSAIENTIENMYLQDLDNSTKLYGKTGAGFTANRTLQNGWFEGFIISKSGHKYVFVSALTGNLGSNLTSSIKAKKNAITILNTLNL

OXA-48 = molecular target: T6, OXA-48 (Klebsiella pneumoniae, UniProt Q6XEC0); assay: as above; format: biochemical
T6 construct: made in house; host or cells: E. coli
T6 sequence (Q6XEC0 23-265 limits assumed): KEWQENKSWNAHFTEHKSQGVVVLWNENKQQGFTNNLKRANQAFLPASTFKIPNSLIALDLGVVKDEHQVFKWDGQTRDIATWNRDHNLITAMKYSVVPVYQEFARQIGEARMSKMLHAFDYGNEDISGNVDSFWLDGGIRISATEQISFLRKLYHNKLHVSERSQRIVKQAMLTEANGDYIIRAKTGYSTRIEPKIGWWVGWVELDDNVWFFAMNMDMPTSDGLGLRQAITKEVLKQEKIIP

[1] = test system: K. pneumoniae BAA-1898 (TEM-1, SHV-11, SHV-12, KPC-2); assay: microbe, parasite or virus in culture; format: cell-based; settings: for MIC: Klebsiella pneumoniae, BAA1898, read-out: MIC compounds of the invention alone
[2] = test system: E. cloacae 260508 (TEM-1, CTX-M-15); assay: MIC broth microdilution, alone and synergy with ceftazidime; settings: for MIC: Enterobacter cloacae, read-out: MIC compounds of the invention alone; for MIC of CAZ in combination with compound at 4 μg/mL: strain 260508, compound fixed at 4 μg/mL
E. cloacae P99 (AmpC) = assay: as above; settings: for MIC: Enterobacter cloacae, read-out: MIC compounds of the invention alone; for MIC of CAZ in combination with compound at 4 μg/mL: strain P99, compound fixed at 4 μg/mL
[3] = test system: E. cloacae UFR85 (TEM-1, CTX-M-15, derepressed AmpC); assay: as above; settings: strain UFR85; compound fixed at 4 μg/mL
[4] = test system: E. cloacae UFR70 (TEM-1, CTX-M-15, CMY-2, OXA-1, Porin loss); assay: as above; settings: for MIC of CAZ in combination with compound at 4 μg/mL: strain UFR70, compound fixed at 4 μg/mL
[5] = test system: K. pneumoniae UFR77 (CMY-2); assay: as above; settings: for MIC: Klebsiella pneumoniae, read-out: MIC compounds of the invention alone; for MIC of CAZ in combination with compound at 4 μg/mL: strain UFR77, compound fixed at 4 μg/mL
[6] = test system: E. coli UFR74 (SHV-1, DHA-1); assay: as above; settings: for MIC: Escherichia coli, read-out: MIC compounds of the invention alone; for MIC of CAZ in combination with compound at 4 μg/mL: strain UFR74, compound fixed at 4 μg/mL
[7] = test system: E. coli UFR18 (CTX-M-15, OXA-204); assay: as above; settings: for MIC: Escherichia coli, read-out: MIC compounds of the invention alone; for MIC of CAZ in combination with compound at 4 μg/mL: strain UFR18, compound fixed at 4 μg/mL
[8] = test system: E. coli 131119 (TEM-1, OXA-48); assay: as above; settings: for MIC of CAZ in combination with compound at 4 μg/mL: strain 131119, compound fixed at 4 μg/mL
[9] = test system: K. pneumoniae UFR24 (TEM-1, SHV-2, SHV-11, OXA-1, OXA-48, OXA-47); assay: as above; settings: for MIC of CAZ in combination with compound at 4 μg/mL: strain UFR24, compound fixed at 4 μg/mL
[10] = test system: K. pneumoniae 6299 (TEM-1, SHV-11, OXA-163); assay: as above; settings: for MIC: Klebsiella pneumoniae, read-out: MIC compounds of the invention alone; for MIC of CAZ in combination with compound at 4 μg/mL: strain 6299, compound fixed at 4 μg/mL
E. coli RGN238 (OXA-1) = assay: as above; settings: for MIC: Escherichia coli, read-out: MIC compounds of the invention alone; for MIC of CAZ in combination with compound at 4 μg/mL: strain RGN238, compound fixed at 4 μg/mL
[11] = test system: K. pneumoniae 200047 (TEM-1, SHV-32, CTX-M-15, OXA-1); assay: as above; settings: for MIC of CAZ in combination with compound at 4 μg/mL: strain 200047, compound fixed at 4 μg/mL
[12] = test system: E. cloacae UFR38 (CTX-M-15, NDM-1); assay: as above; settings: for MIC: Enterobacter cloacae, read-out: MIC compounds of the invention alone; for MIC of CAZ in combination with compound at 4 μg/mL: strain UFR38, compound fixed at 4 μg/mL
[13] = test system: E. coli UFR52 (TEM-1, SHV-12, IMP-8); assay: as above; settings: for MIC: Escherichia coli, read-out: MIC compounds of the invention alone
[14] = test system: P. aeruginosa CIP107051 (TEM-24); assay: as above; settings: for MIC: Pseudomonas aeruginosa, CIP107051, read-out: MIC compounds of the invention alone; for MIC of CAZ in combination with compound at 4 μg/mL: strain CIP107051, compound fixed at 4 μg/mL
[15] = Klebsiella pneumoniae, read-out: MIC compounds of the invention alone

T1 sequence (P62593 24-286 limits assumed): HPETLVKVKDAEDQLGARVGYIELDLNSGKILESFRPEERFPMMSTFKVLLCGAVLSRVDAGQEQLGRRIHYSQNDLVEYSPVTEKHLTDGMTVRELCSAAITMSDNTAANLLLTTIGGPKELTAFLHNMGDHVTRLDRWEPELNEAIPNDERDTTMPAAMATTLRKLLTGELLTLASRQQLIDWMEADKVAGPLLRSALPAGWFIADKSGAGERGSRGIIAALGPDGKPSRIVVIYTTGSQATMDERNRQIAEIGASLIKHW

`O=C1N2Cc3c(sc(=O)n3CCO)C(C2)N1OS(=O)(=O)[O-].[Na+]` (stereo not shown) [Example 5, Sodium [5-(2-hydroxyethyl)-4,9-dioxo-3-thia-5,8,10-triaza-tricyclo[6.2.1.0^2.6]undec-2(6)-en-10-yl) sulfate] gave an IC50 (TEM-1) of 1.8 nM, an IC50 (SHV-1) of 6 nM and an IC50 (CTX-M-15) of 0.68 nM. It also gave an IC50 (KPC-2) of 1.7 nM, an IC50 (AmpC P. aeruginosa) of 370 nM and an IC50 (OXA-1) of 310 nM. The IC50 (OXA-48) was 0.79 nM, the MIC [1] was 8 µg/mL and the “MIC of CAZ in combination with compound at 4 μg/mL” value (from here on “MIC of CAZ in combination”) ([1]; strain BAA-1898, compound fixed at 4 μg/mL) was 4 µg/mL. The MIC [2] was 4 µg/mL, the “MIC of CAZ in combination” value [2] was under 0.25 µg/mL and the MIC (E. cloacae P99 (AmpC)) was 8 µg/mL. For the same molecule, the “MIC of CAZ in combination” value (E. cloacae P99 (AmpC)) was 0.25 µg/mL, the “MIC of CAZ in combination” value [3] was under 0.25 µg/mL and the MIC ([4]; Enterobacter cloacae, read-out: MIC compounds of the invention alone) was 1 µg/mL. The “MIC of CAZ in combination” value [4] was under 0.25 µg/mL, the MIC [5] was 4 µg/mL and the “MIC of CAZ in combination” value [5] was under 0.25 µg/mL. The MIC [6] was 4 µg/mL, the “MIC of CAZ in combination” value [6] was under 0.25 µg/mL and the MIC [7] was 2 µg/mL. The “MIC of CAZ in combination” value [7] was under 0.25 µg/mL, the “MIC of CAZ in combination” value [8] was under 0.25 µg/mL and the “MIC of CAZ in combination” value [9] was under 0.25 µg/mL. The MIC [10] was 8 µg/mL, the “MIC of CAZ in combination” value [10] was at most 0.125 µg/mL and the MIC (E. coli RGN238 (OXA-1)) was 1 µg/mL. For the same molecule, the “MIC of CAZ in combination” value (E. coli RGN238 (OXA-1)) was under 0.25 µg/mL, the MIC [11, 15] was 2 µg/mL and the “MIC of CAZ in combination” value [11] was under 0.25 µg/mL. The MIC [12] was 2 µg/mL, the “MIC of CAZ in combination” value [12] was under 0.25 µg/mL and the MIC [13] was 0.5 µg/mL. The “MIC of CAZ in combination” value ([13]; strain UFR52, compound fixed at 4 μg/mL) was under 0.25 µg/mL, the MIC [14] was over 32 µg/mL and the “MIC of CAZ in combination” value [14] was 4 µg/mL.
With `COC(=O)Cn1c2c(sc1=O)C1CN(C2)C(=O)N1OS(=O)(=O)[O-].[Na+]` (stereo not shown) [Example 2, Sodium [5-(2-methoxy-2-oxo-ethyl)-4,9-dioxo-3-thia-5,8,10-triaza-tricyclo[6.2.1.0^2.6]undec-2(6)-en-10-yl] sulfate] the IC50 (TEM-1) was 0.64 nM, the IC50 (SHV-1) was 1.3 nM and the IC50 (CTX-M-15) was 1.1 nM. The IC50 (KPC-2) was 1.3 nM, the IC50 (AmpC P. aeruginosa) was 220 nM and the IC50 (OXA-1) was 38 nM. It also gave an IC50 (OXA-48) of 0.67 nM, an MIC [1] of 32 µg/mL and an MIC [2] of 4 µg/mL. The “MIC of CAZ in combination” value [2] was under 0.25 µg/mL, the MIC (E. cloacae P99 (AmpC)) was 16 µg/mL and the “MIC of CAZ in combination” value (E. cloacae P99 (AmpC)) was 4 µg/mL. For the same molecule, the “MIC of CAZ in combination” value [3] was 16 µg/mL, the “MIC of CAZ in combination” value [4] was 1 µg/mL and the MIC [5] was 4 µg/mL. For the same molecule, the “MIC of CAZ in combination” value [5] was 0.25 µg/mL, the MIC [6] was 8 µg/mL and the “MIC of CAZ in combination” value [6] was 1 µg/mL. For the same molecule, the MIC [7] was 4 µg/mL, the “MIC of CAZ in combination” value [7] was 0.5 µg/mL and the MIC ([8]; Escherichia coli, read-out: MIC compounds of the invention alone) was 2 µg/mL. The “MIC of CAZ in combination” value [8] was under 0.25 µg/mL, the MIC [9, 15] was 16 µg/mL and the “MIC of CAZ in combination” value [9] was 4 µg/mL. The MIC [10] was 8 µg/mL, the “MIC of CAZ in combination” value [10] was 4 µg/mL and the MIC (E. coli RGN238 (OXA-1)) was 1 µg/mL. For the same molecule, the “MIC of CAZ in combination” value (E. coli RGN238 (OXA-1)) was under 0.25 µg/mL, the “MIC of CAZ in combination” value [11] was under 0.25 µg/mL and the MIC [12] was 8 µg/mL. The “MIC of CAZ in combination” value [12] was over 128 µg/mL, the MIC [13] was 8 µg/mL and the MIC [14] was over 32 µg/mL. The “MIC of CAZ in combination” value [14] was 16 µg/mL.
